Measured values reported in patent US20240190831A1, “TRANSTHYRETIN STABILIZING COMPOUNDS” (Protego Biopharma, Inc., priority 2021, published 2024).

Assay: In vitro rat liver S9 stability assay (formation of tafamidis)
Assay type: in vitro ADME
Conditions: rat liver S9, 1 μM test compound, 37° C.
Protocol: A stability assay in liver S9 (rat or human) was used to evaluate the ability of a compound provided herein to convert to an active TTR stabilizer. The test compound was added to liver S9 and incubated at 37° C. in a water bath at a concentration of 1 μM. At each time point (0, 5, 10, 20, 30 and 60 min), stop solution (tolbutamide plus labetalol) was added to precipitate protein and mixed thoroughly. After centrifugation, an aliquot of supernatant was analyzed by LC-MS/MS. The percentage of formation of active agent was calculated at each time point.

Row | Structure (SMILES) | Formation of tafamidis at 60 min
1 | CN1CCC(NC(=O)c2ccc3nc(-c4cc(Cl)cc(Cl)c4)oc3c2)C1 (centres unmarked) [Compound 21, 2-(3,5-dichlorophenyl)-N-(1-methylpyrrolidin-3-yl)benzo[d]oxazole-6-carboxamide] | A (A is <25%)
2 | O=C(NC1CCN(CCF)C1)c1ccc2nc(-c3cc(Cl)cc(Cl)c3)oc2c1 (centres unmarked) [Compound 22, 2-(3,5-dichlorophenyl)-N-(1-(2-fluoroethyl)pyrrolidin-3-yl)benzo[d]oxazole-6-carboxamide] | A (A is <25%)
3 | O=C(NC1CCN(CC(F)F)C1)c1ccc2nc(-c3cc(Cl)cc(Cl)c3)oc2c1 (centres unmarked) [Compound 23, 2-(3,5-dichlorophenyl)-N-(1-(2,2-difluoroethyl)pyrrolidin-3-yl)benzo[d]oxazole-6-carboxamide] | A (A is <25%)
4 | O=C(NC1CCN(CC(F)(F)F)C1)c1ccc2nc(-c3cc(Cl)cc(Cl)c3)oc2c1 (centres unmarked) [Compound 24, 2-(3,5-dichlorophenyl)-N-(1-(2,2,2-trifluoroethyl)pyrrolidin-3-yl)benzo[d]oxazole-6-carboxamide] | A (A is <25%)
5 | O=C(N[C@H]1C[C@H](O)C1)c1ccc2nc(-c3cc(Cl)cc(Cl)c3)oc2c1 [Compound 26, 2-(3,5-dichlorophenyl)-N-((trans)-3-hydroxycyclobutyl)-benzo[d]oxazole-6-carboxamide] | A (A is <25%)
6 | O=C(N[C@H]1C[C@@H](O)C1)c1ccc2nc(-c3cc(Cl)cc(Cl)c3)oc2c1 [Compound 27, 2-(3,5-dichlorophenyl)-N-((Cis)-3-hydroxycyclobutyl)benzo-[d]oxazole-6-carboxamide] | A (A is <25%)
7 | O=C(OCCc1ccn[nH]1)c1ccc2nc(-c3cc(Cl)cc(Cl)c3)oc2c1 [Compound 36, 2-(1H-pyrazol-5-yl) ethyl 2-(3,5-dichlorophenyl)benzo[d]oxazole-6-carboxylate] | D (D is ≥75%)
8 | CCC(Cc1ncc[nH]1)OC(=O)c1ccc2nc(-c3cc(Cl)cc(Cl)c3)oc2c1 (centres unmarked) [Compound 37, 1-(1H-imidazol-2-yl) butan-2-yl 2-(3,5-dichlorophenyl)benzo-[d]oxazole-6-carboxylate] | A (A is <25%)
9 | CC(Cc1ccn[nH]1)OC(=O)c1ccc2nc(-c3cc(Cl)cc(Cl)c3)oc2c1 (centres unmarked) [Compound 38, 1-(1H-pyrazol-5-yl)propan-2-yl 2-(3,5-dichlorophenyl) benzo[d]oxazole-6-carboxylate] | B (B is ≥25 to <50%)
10 | O=C(OCCCO)c1ccc2nc(-c3cc(Cl)cc(Cl)c3)oc2c1 [Compound 40, 3-hydroxypropyl 2-(3,5-dichlorophenyl)benzo[d]oxazole-6-carboxylate] | B (B is ≥25 to <50%)
11 | CC(CCO)OC(=O)c1ccc2nc(-c3cc(Cl)cc(Cl)c3)oc2c1 (centres unmarked) [Compound 41, 4-hydroxybutan-2-yl 2-(3,5-dichlorophenyl) benzo [d] oxazole-6-carboxylate] | C (C is ≥50 to <75%)
12 | CC(N1CCC(OC(=O)c2ccc3nc(-c4cc(Cl)cc(Cl)c4)oc3c2)C1)C(F)(F)F (centres unmarked) [Compound 45, 1-(1,1,1-trifluoropropan-2-yl)pyrrolidin-3-yl 2-(3,5-dichlorophenyl)benzo[d]oxazole-6-carboxylate] | B (B is ≥25 to <50%)
13 | CC1(C)CCC(OC(=O)c2ccc3nc(-c4cc(Cl)cc(Cl)c4)oc3c2)C1 (centres unmarked) [Compound 48, 3,3-dimethylcyclopentyl 2-(3,5-dichlorophenyl)benzo[d]oxazole-6-carboxylate] | B (B is ≥25 to <50%)
14 | O=C(OC1CCN(c2cccnc2)C1)c1ccc2nc(-c3cc(Cl)cc(Cl)c3)oc2c1 (centres unmarked) [Compound 49, 1-(pyridin-3-yl)pyrrolidin-3-yl 2-(3,5-dichlorophenyl)benzo-[d]oxazole-6-carboxylate] | B (B is ≥25 to <50%)
15 | O=C(OC1CCN(c2ccncc2)C1)c1ccc2nc(-c3cc(Cl)cc(Cl)c3)oc2c1 (centres unmarked) [Compound 50, 1-(pyridin-4-yl)pyrrolidin-3-yl 2-(3,5-dichlorophenyl)benzo-[d]oxazole-6-carboxylate] | A (A is <25%)
16 | O=C(OC1CCN(c2ncccn2)C1)c1ccc2nc(-c3cc(Cl)cc(Cl)c3)oc2c1 (centres unmarked) [Compound 51, 1-(pyrimidin-2-yl)pyrrolidin-3-yl 2-(3,5-dichlorophenyl)benzo-[d]oxazole-6-carboxylate] | B (B is ≥25 to <50%)
17 | O=C(OC1CCN(c2cnccn2)C1)c1ccc2nc(-c3cc(Cl)cc(Cl)c3)oc2c1 (centres unmarked) [Compound 52, 1-(pyrazin-2-yl)pyrrolidin-3-yl 2-(3,5-dichlorophenyl)benzo-[d]oxazole-6-carboxylate] | A (A is <25%)
18 | O=C(OC1CCN(c2ccncn2)C1)c1ccc2nc(-c3cc(Cl)cc(Cl)c3)oc2c1 (centres unmarked) [Compound 53, 1-(pyrimidin-4-yl)pyrrolidin-3-yl 2-(3,5-dichlorophenyl)benzo-[d]oxazole-6-carboxylate] | A (A is <25%)
19 | O=C(OC1CCN(c2cccnn2)C1)c1ccc2nc(-c3cc(Cl)cc(Cl)c3)oc2c1 (centres unmarked) [Compound 54, 1-(pyridazin-3-yl)pyrrolidin-3-yl 2-(3,5-dichlorophenyl)benzo-[d]oxazole-6-carboxylate] | A (A is <25%)
20 | O=C(OC1CCN2CCCCC12)c1ccc2nc(-c3cc(Cl)cc(Cl)c3)oc2c1 (centres unmarked) [Compound 55, Octahydroindolizin-1-yl 2-(3,5-dichlorophenyl)benzo[d]oxazole-6-carboxylate] | B (B is ≥25 to <50%)
21 | Cc1ncc2n1CC(OC(=O)c1ccc3nc(-c4cc(Cl)cc(Cl)c4)oc3c1)CC2 (centres unmarked) [Compound 56, 3-methyl-5,6,7,8-tetrahydroimidazo [1,5-a] pyridin-6-yl 2-(3,5-dichlorophenyl) benzo[d]oxazole-6-carboxylate] | A (A is <25%)
22 | CC(C)(N1CCC(OC(=O)c2ccc3nc(-c4cc(Cl)cc(Cl)c4)oc3c2)C1)C(F)(F)F (centres unmarked) [Compound 57, 1-(1,1,1-trifluoro-2-methylpropan-2-yl)pyrrolidin-3-yl 2-(3,5-dichlorophenyl)benzo[d]oxazole-6-carboxylate] | A (A is <25%)
23 | O=C(OC1CCc2nc[nH]c2C1)c1ccc2nc(-c3cc(Cl)cc(Cl)c3)oc2c1 (centres unmarked) [Compound 60, 4,5,6,7-tetrahydro-1H-benzo[d]imidazol-6-yl 2-(3,5-dichlorophenyl) benzo[d]oxazole-6-carboxylate] | A (A is <25%)
24 | O=C(O[C@H]1C[C@@H](O)C1)c1ccc2nc(-c3cc(Cl)cc(Cl)c3)oc2c1 [Compound 63, (cis)-3-hydroxycyclobutyl 2-(3,5-dichlorophenyl) benzo[d]oxazole-6-carboxylate] | A (A is <25%)
25 | O=C(O[C@H]1C[C@H](O)C1)c1ccc2nc(-c3cc(Cl)cc(Cl)c3)oc2c1 [Compound 64, (trans)-3-hydroxycyclobutyl 2-(3,5-dichlorophenyl) benzo[d]oxazole-6-carboxylate] | B (B is ≥25 to <50%)
26 | O=C(OC1CC(=O)N2CCCCC12)c1ccc2nc(-c3cc(Cl)cc(Cl)c3)oc2c1 (centres unmarked) [Compound 65, 3-oxooctahydroindolizin-1-yl 2-(3,5-dichlorophenyl)benzo-[d]oxazole-6-carboxylate] | C (C is ≥50 to <75%)
